Experimental data published in patent publication US10059669B2, “2-amino-3,5-difluoro-3,6-dimethyl-6-phenyl-3,4,5,6-tetrahydropyridines as BACE1 inhibitors for treating alzheimer's disease” (H. Lundbeck A/S, priority 2014, dated 2018).

How the values were obtained:
BACE1 [1] = target: T1, BACE1 (Homo sapiens (Human), UniProt P56817); assay: BACE1 binding assay (SPA-based radioligand binding); conditions: pH 4.5, 10 nM radioligand, Ki calculated from IC50
Protocol: The binding assay was performed as SPA-based assay using a biotinylated form of human BACE1 recombinantly expressed and subsequently purified from Freestyle HEK293 cells. The binding assay was run in a 50 mM sodium acetate buffer, pH 4.5 containing 50 mM NaCl and 0.03% Tween-20 in white clear bottom 384 plates (Corning #3653). 10 nM (final concentration) radioligand ([^3H]—N-((1S,2R)-1-benzyl-3-cyclopropylamino-2-hydroxy-propyl)-5-(methanesulfonyl-methyl-amino)-N—((R)-1-phenyl-ethyl)-isophthalamide) (TRQ11569 purchased from GE Healthcare) was mixed with test compound at a given concentration, 6 nM (final concentration) human BACE1 and 25 μg Streptavidin coated PVT core SPA beads (RPNQ0007, GE Healthcare Life Sciences) in a total volume of 40 μl. Several concentrations of each test compound were tested in the assay for IC50 determination. The plates were incubated for one hour at room temperature and counted in a Wallac Trilux counter. Total and non-specific binding were determined using buffer and 1 μM (final concentration) of the high affinity BACE1 reference inhibitor (S)-6-[3-chloro-5-(5-prop-1-ynyl-pyridin-3-yl)-thiophen-2-yl]-2-imino-3,6-dimethyl-tetrahydro-pyrimidin-4-one, respectively. For each test compound, a IC50 value (the concentration mediating 50% inhibition of the specific binding of the radioligand) was determined from concentration-response curve and used to calculate the Ki from the equation Ki=IC50/(1+L/Kd), where L and Kd are the final concentration of the radioligand used in the assay and the dissociation constant of the radioligand, respectively. The Kd of the radioligand was determined from saturation binding experiments.

BACE1 [2] = target: T1, BACE1; assay: BACE1 efficacy assay (FRET-based, commercial BACE1 kit); assay type: biochemical; conditions: 10 μM test compound
Protocol: The efficacy assay was performed as a FRET-based assay using a commercially available BACE1 kit (Life Technologies, P2985). 2 μl test compound at 10 μM (final concentration) and 15 μl BACE1 enzyme from the kit (final concentration 3 nM) were preincubated for 15 minutes at room temperature before addition of 15 μl of substrate from the kit (250 nM final concentration) and incubated for additional 90 minutes at room temperature. The assay plate was subsequently read in a Pherastar (Ex540/Em590). The enzyme activity observed in presence of test compound were normalized to the enzyme activity observed in presence of buffer and 10 μM (final concentration) of the high affinity BACE1 reference inhibitor (S)-6-[3-Chloro-5-(5-prop-1-ynyl-pyridin-3-yl)-thiophen-2-yl]-2-imino-3,6-dimethyl-tetra-hydropyrimidin-4-one, respectively. The efficacy of the test compounds was evaluated at 10 μM (final concentration) and defined as the percent inhibition of the enzyme activity using the equation % inhibition=100%−normalized enzyme activity in percent.

P-gp (MDR1) = assay: MDCK-MDR1 assay (permeability, efflux ratio); assay type: in vitro ADME; conditions: dog, Papp BA/Papp AB, 60-minute incubation, Pgp substrate when ≥2
Protocol: The permeability of the test compounds was assessed in MDCK-MDR1 cells that were cultured to confluency (4-6 days) in a 96 transwell plate. Test compounds were diluted with the transport buffer (HBSS+1% BSA) to a concentration of 0.5 μM and applied to the apical or basolateral side of the cell monolayer. Permeation of the test compounds from A to B direction or B to A direction was determined in triplicate over a 60-minute incubation time at 37° C. and 5% CO2 with a relative humidity of 95%. Test compounds were quantified by LC-MS/MS analysis based on the peaks area ratios of analyte/IS in both the receiver and donor wells of the transwell plate.
The apparent permeability coefficient Papp (cm/s) was calculated using the equation: Papp=(dCr/dt)×Vr/(A×C0)
Where dCr/dt is the cumulative concentration of compound in the receiver chamber as a function of time (M/s); Vr is the solution volume in the receiver chamber (0.05 mL on the apical side; 0.25 mL on the basolateral side); A is the surface area for the transport, i.e. 0.0804 cm^2 for the area of the monolayer; C0 is the initial concentration in the donor chamber (VIM).
Compounds are classified Pgp substrates when efflux ratio (Papp BA/Papp AB) is ≥2.

T1 sequence (P56817 46-501): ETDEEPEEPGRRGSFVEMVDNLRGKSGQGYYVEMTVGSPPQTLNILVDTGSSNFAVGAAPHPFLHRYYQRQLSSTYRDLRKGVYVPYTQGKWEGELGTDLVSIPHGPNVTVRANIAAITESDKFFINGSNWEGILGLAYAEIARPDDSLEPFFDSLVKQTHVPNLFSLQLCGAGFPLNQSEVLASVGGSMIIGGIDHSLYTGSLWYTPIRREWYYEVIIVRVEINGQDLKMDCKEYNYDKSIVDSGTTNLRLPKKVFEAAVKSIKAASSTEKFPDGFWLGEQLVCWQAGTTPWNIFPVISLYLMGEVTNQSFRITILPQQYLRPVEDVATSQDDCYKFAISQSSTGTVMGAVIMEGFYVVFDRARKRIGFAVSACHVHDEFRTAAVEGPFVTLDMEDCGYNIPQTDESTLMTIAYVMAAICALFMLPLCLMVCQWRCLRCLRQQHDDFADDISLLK

C[C@]1(F)C[C@H](F)[C@@](C)(c2cc(NC(=O)c3ccc(Br)cn3)ccc2F)N=C1N [Compound 24, N-(3-((2R,3S,5S)-6-amino-3,5-difluoro-2,5-dimethyl-2,3,4,5-tetrahydropyridin-2-yl)-4-fluorophenyl)-5-bromopicolinamide]
Ki (BACE1 [1]): 4.3 nM
inhibition at 10 µM (BACE1 [2]): 103%

C[C@@]1(F)C[C@H](F)[C@@](C)(c2cc(NC(=O)c3cnc(C(F)F)cn3)ccc2F)N=C1N [Compound 15, N-(3-((2R,3S,5R)-6-amino-3,5-difluoro-2,5-dimethyl-2,3,4,5-tetrahydropyridin-2-yl)-4-fluorophenyl)-5-(difluoromethyl)pyrazine-2-carboxamide]
Ki (BACE1 [1]): 100 nM
inhibition at 10 µM (BACE1 [2]): 108%
efflux ratio at 60 min, 0.5 μM (P-gp (MDR1)): 2.07

[2H]C([2H])([2H])Oc1ccc(C(=O)Nc2cc(F)c(F)c([C@@]3(C)N=C(N)[C@@](C)(F)C[C@@H]3F)c2)nc1 [Compound 22, N-(3-((2R,3S,5S)-6-amino-3,5-difluoro-2,5-dimethyl-2,3,4,5-tetrahydropyridin-2-yl)-4,5-difluorophenyl)-5-(methoxy-d3)picolinamide]
Ki (BACE1 [1]): 3.6 nM
inhibition at 10 µM (BACE1 [2]): 101%
efflux ratio at 60 min, 0.5 μM (P-gp (MDR1)): 0.52

Cn1ccnc1C(=O)Nc1ccc(F)c([C@@]2(C)N=C(N)[C@](C)(F)C[C@@H]2F)c1 [Compound 10, N-(3-((2R,3S,5R)-6-amino-3,5-difluoro-2,5-dimethyl-2,3,4,5-tetrahydropyridin-2-yl)-4-fluorophenyl)-1-methyl-1H-imidazole-2-carboxamide]
Ki (BACE1 [1]): 820 nM
inhibition at 10 µM (BACE1 [2]): 115%

COc1cnc(C(=O)Nc2ccc(F)c([C@@]3(C)N=C(N)[C@](C)(F)C[C@@H]3F)c2)cn1 [Compound 5, N-(3-((2R,3S,5R)-6-amino-3,5-difluoro-2,5-dimethyl-2,3,4,5-tetrahydropyridin-2-yl)-4-fluorophenyl)-5-methoxypyrazine-2-carboxamide]
Ki (BACE1 [1]): 51 nM
efflux ratio at 60 min, 0.5 μM (P-gp (MDR1)): 1.53

C[C@]1(F)C[C@H](F)[C@@](C)(c2cc(NC(=O)c3ccc(F)cn3)ccc2F)N=C1N [Compound 1, N-(3-((2R,3S,5S)-6-Amino-3,5-difluoro-2,5-dimethyl-2,3,4,5-tetrahydropyridin-2-yl)-4-fluorophenyl)-5-fluoropicolinamide]
Ki (BACE1 [1]): 30 nM
inhibition at 10 µM (BACE1 [2]): 103%
efflux ratio at 60 min, 0.5 μM (P-gp (MDR1)): 1.09

COc1cnc(C(=O)Nc2ccc(F)c([C@@]3(C)N=C(N)[C@@](C)(F)C[C@@H]3F)c2)cn1 [Compound 2, N-(3-((2R,3S,5S)-6-amino-3,5-difluoro-2,5-dimethyl-2,3,4,5-tetrahydropyridin-2-yl)-4-fluorophenyl)-5-methoxypyrazine-2-carboxamide]
Ki (BACE1 [1]): 26 nM
inhibition at 10 µM (BACE1 [2]): 99%
efflux ratio at 60 min, 0.5 μM (P-gp (MDR1)): 0.79

C[C@@]1(F)C[C@H](F)[C@@](C)(c2cc(NC(=O)c3coc(C(F)F)n3)ccc2F)N=C1N [Compound 13, N-(3-((2R,3S,5R)-6-amino-3,5-difluoro-2,5-dimethyl-2,3,4,5-tetrahydropyridin-2-yl)-4-fluorophenyl)-2-(difluoromethyl)oxazole-4-carboxamide]
Ki (BACE1 [1]): 62 nM
inhibition at 10 µM (BACE1 [2]): 108%
efflux ratio at 60 min, 0.5 μM (P-gp (MDR1)): 11.7

[2H]C([2H])([2H])Oc1ccc(C(=O)Nc2ccc(F)c([C@@]3(C)N=C(N)[C@@](C)(F)C[C@H]3F)c2)nc1 [Compound 23, N-(3-((2R,3R,5S)-6-amino-3,5-difluoro-2,5-dimethyl-2,3,4,5-tetrahydropyridin-2-yl)-4-fluorophenyl)-5-(methoxy-d3)picolinamide]
Ki (BACE1 [1]): 81 nM
inhibition at 10 µM (BACE1 [2]): 107%
efflux ratio at 60 min, 0.5 μM (P-gp (MDR1)): 0.95

C[C@@]1(F)C[C@H](F)[C@@](C)(c2cc(NC(=O)c3ccc(Cl)cc3)ccc2F)N=C1N [Compound 16, N-(3-((2R,3S,5R)-6-amino-3,5-difluoro-2,5-dimethyl-2,3,4,5-tetrahydropyridin-2-yl)-4-fluorophenyl)-4-chlorobenzamide]
Ki (BACE1 [1]): 220 nM
inhibition at 10 µM (BACE1 [2]): 103%
efflux ratio at 60 min, 0.5 μM (P-gp (MDR1)): 1.6

[2H]C([2H])([2H])Oc1ccc(C(=O)Nc2cc(F)c(F)c([C@@]3(C)N=C(N)[C@](C)(F)C[C@@H]3F)c2)nc1 [Compound 18, N-(3-((2R,3S,5R)-6-amino-3,5-difluoro-2,5-dimethyl-2,3,4,5-tetrahydropyridin-2-yl)-4,5-difluorophenyl)-5-(methoxy-d3)picolinamide]
Ki (BACE1 [1]): 6.8 nM
inhibition at 10 µM (BACE1 [2]): 101%
efflux ratio at 60 min, 0.5 μM (P-gp (MDR1)): 1.24

COc1ccc(C(=O)Nc2ccc(F)c([C@@]3(C)N=C(N)[C@](C)(F)C[C@@H]3F)c2)nc1 [Compound 7, N-(3-((2R,3S,5R)-6-amino-3,5-difluoro-2,5-dimethyl-2,3,4,5-tetrahydropyridin-2-yl)-4-fluorophenyl)-5-methoxypicolinamide]
Ki (BACE1 [1]): 39 nM
inhibition at 10 µM (BACE1 [2]): 102%
efflux ratio at 60 min, 0.5 μM (P-gp (MDR1)): 5.67

Cc1csc(C(=O)Nc2ccc(F)c([C@@]3(C)N=C(N)[C@](C)(F)C[C@@H]3F)c2)n1 [Compound 12, N-(3-((2R,3S,5R)-6-amino-3,5-difluoro-2,5-dimethyl-2,3,4,5-tetrahydropyridin-2-yl)-4-fluorophenyl)-4-methylthiazole-2-carboxamide]
Ki (BACE1 [1]): 99 nM
inhibition at 10 µM (BACE1 [2]): 118%

C[C@@]1(F)C[C@H](F)[C@@](C)(c2cc(NC(=O)c3ccc(F)cn3)ccc2F)N=C1N [Compound 4, N-(3-((2R,3S,5R)-6-amino-3,5-difluoro-2,5-dimethyl-2,3,4,5-tetrahydropyridin-2-yl)-4-fluorophenyl)-5-fluoropicolinamide]
Ki (BACE1 [1]): 98 nM
inhibition at 10 µM (BACE1 [2]): 101%
efflux ratio at 60 min, 0.5 μM (P-gp (MDR1)): 1.17

[2H]C([2H])([2H])Oc1ccc(C(=O)Nc2ccc(F)c([C@@]3(C)N=C(N)[C@](C)(F)C[C@@H]3F)c2)nc1 [Compound 8, N-(3-((2R,3S,5R)-6-amino-3,5-difluoro-2,5-dimethyl-2,3,4,5-tetrahydropyridin-2-yl)-4-fluorophenyl)-5-(methoxy-d3)picolinamide]
Ki (BACE1 [1]): 58 nM
inhibition at 10 µM (BACE1 [2]): 100%
efflux ratio at 60 min, 0.5 μM (P-gp (MDR1)): 0.95

Cc1nc(C(=O)Nc2ccc(F)c([C@@]3(C)N=C(N)[C@](C)(F)C[C@@H]3F)c2)co1 [Compound 6, N-(3-((2R,3S,5R)-6-amino-3,5-difluoro-2,5-dimethyl-2,3,4,5-tetrahydropyridin-2-yl)-4-fluorophenyl)-2-methyloxazole-4-carboxamide]
Ki (BACE1 [1]): 58 nM
inhibition at 10 µM (BACE1 [2]): 101%
efflux ratio at 60 min, 0.5 μM (P-gp (MDR1)): 1.1

C[C@@]1(F)C[C@H](F)[C@@](C)(c2cc(NC(=O)c3ccc(C#N)cn3)ccc2F)N=C1N [Compound 17, N-(3-((2R,3S,5R)-6-amino-3,5-difluoro-2,5-dimethyl-2,3,4,5-tetrahydropyridin-2-yl)-4-fluorophenyl)-5-cyanopicolinamide]
Ki (BACE1 [1]): 39 nM
efflux ratio at 60 min, 0.5 μM (P-gp (MDR1)): 0.45

C[C@@]1(F)C[C@H](F)[C@@](C)(c2cc(NC(=O)c3cnc(C(F)(F)F)cn3)ccc2F)N=C1N [Compound 11, N-(3-((2R,3S,5R)-6-amino-3,5-difluoro-2,5-dimethyl-2,3,4,5-tetrahydropyridin-2-yl)-4-fluorophenyl)-5-(trifluoromethyl)pyrazine-2-carboxamide]
Ki (BACE1 [1]): 190 nM
inhibition at 10 µM (BACE1 [2]): 104%
